Values after ≈ are worked out from the molar mass of the structure shown.
Columns and labels:
Type in all cases: functional
[1] = system: Nakaseomyces glabratus; test: Antifungal activity against Candida glabrata after 48 hrs by broth microdilution
[2] = system: Pichia kudriavzevii; test: Antifungal activity against Candida krusei after 48 hrs by broth microdilution
[3] = system: Candida parapsilosis; test: Antifungal activity against Candida parapsilosis after 48 hrs by broth microdilution
[4] = system: Candida tropicalis; test: Antifungal activity against Candida tropicalis after 48 hrs by broth microdilution
[5] = system: Aspergillus sp.; test: Antifungal activity against Aspergillus sp. after 48 hrs by broth microdilution
[6] = system: Curvularia; test: Antifungal activity against Curvularia species after 48 hrs by broth microdilution
[7] = system: Fusarium sp.; test: Antifungal activity against Fusarium sp. after 48 hrs by broth microdilution
[8] = system: Paecilomyces variotii; test: Antifungal activity against Paecilomyces variotii after 48 hrs by broth microdilution
[9] = system: Talaromyces marneffei; test: Antifungal activity against Penicillium marneffei after 48 hrs by broth microdilution
[10] = system: Penicillium sp.; test: Antifungal activity against Penicillium sp. after 48 hrs by broth microdilution
[11] = system: Candida albicans; test: Antifungal activity against Candida albicans after 48 hrs by broth microdilution
[12] = system: Candida albicans; test: Antifungal activity against Candida albicans assessed as susceptible isolates after 48 hrs by broth microdilution
[13] = system: Nakaseomyces glabratus; test: Antifungal activity against Candida glabrata assessed as susceptible isolates after 48 hrs by broth microdilution
[14] = system: Pichia kudriavzevii; test: Antifungal activity against Candida krusei assessed as susceptible isolates after 48 hrs by broth microdilution
[15] = system: Candida parapsilosis; test: Antifungal activity against Candida parapsilosis assessed as susceptible isolates after 48 hrs by broth microdilution
[16] = system: Candida tropicalis; test: Antifungal activity against Candida tropicalis assessed as susceptible isolates after 48 hrs by broth microdilution
[17] = system: Candida albicans; test: Antifungal activity against Candida albicans assessed as resistant isolates after 48 hrs by broth microdilution
[18] = system: Nakaseomyces glabratus; test: Antifungal activity against Candida glabrata assessed as resistant isolates after 48 hrs by broth microdilution
[19] = system: Pichia kudriavzevii; test: Antifungal activity against Candida krusei assessed as resistant isolates after 48 hrs by broth microdilution
[20] = system: Candida parapsilosis; test: Antifungal activity against Candida parapsilosis assessed as resistant isolates after 48 hrs by broth microdilution
[21] = system: Candida tropicalis; test: Antifungal activity against Candida tropicalis assessed as resistant isolates after 48 hrs by broth microdilution

Row | Compound | MIC50 [1] [µg/mL] | MIC90 [1] [µg/mL] | MIC50 [2] [µg/mL] | MIC90 [2] [µg/mL] | MIC50 [4] [µg/mL] | MIC90 [4] [µg/mL] | MIC50 [5] [µg/mL] | MIC90 [5] [µg/mL] | MIC50 [6] [µg/mL] | MIC90 [6] [µg/mL] | MIC50 [7] [µg/mL] | MIC90 [7] [µg/mL] | MIC50 [8] [µg/mL] | MIC90 [8] [µg/mL] | MIC50 [9] [µg/mL] | MIC90 [9] [µg/mL] | MIC50 [10] [µg/mL] | MIC90 [10] [µg/mL] | MIC50 [11] [µg/mL] | MIC90 [11] [µg/mL] | also measured
1 | NYSTATIN | 8 | 8 | 8 | 8 | 8 | 8 | 16 | 16 | 8 | 16 | 8 | 16 | 8 | 16 | 8 | 16 | 8 | 16 | 8 | 8 | MIC50 [3]: 8 µg/mL; MIC90 [3]: 8 µg/mL
2 | OC(Cn1cncn1)(Cn1cncn1)c1ccc(F)cc1F [FLUCONAZOLE] | 4 (≈ 13.1 µM) | > 64 | 32 (≈ 104 µM) | 64 (≈ 209 µM) | 0.25 (≈ 0.816 µM) | > 64 | > 64 | > 64 | > 64 | > 64 | > 64 | > 64 | > 64 | > 64 | > 64 | > 64 | > 64 | > 64 | 1 (≈ 3.27 µM) | > 64 | MIC [2]: 32 µg/mL (≈ 104 µM); MIC ([3]; Lodderomyces parapsilosis): 0.5 µg/mL (≈ 1.63 µM); MIC50 ([3]; Lodderomyces parapsilosis): 0.5 µg/mL (≈ 1.63 µM); MIC90 ([3]; Lodderomyces parapsilosis): 16 µg/mL (≈ 52.2 µM); Activity [12]: 67.3%; Activity [13]: 77.3%; Activity [14]: 0%; Activity [15]: 81.8%; Activity [16]: 81.8%; Activity [17]: 30.8%; Activity [18]: 18.2%; Activity [19]: 100%; Activity [20]: 0%; Activity [21]: 18.2%
3 | CCC(C)n1ncn(-c2ccc(N3CCN(c4ccc(OCC5COC(Cn6cncn6)(c6ccc(Cl)cc6Cl)O5)cc4)CC3)cc2)c1=O (stereo not drawn) [ITRACONAZOLE] | 0.12 (≈ 0.17 µM) | 0.5 (≈ 0.709 µM) | 0.5 (≈ 0.709 µM) | 0.5 (≈ 0.709 µM) | 0.03 (≈ 0.0425 µM) | 0.12 (≈ 0.17 µM) | 0.03 (≈ 0.0425 µM) | 0.06 (≈ 0.085 µM) | 0.06 (≈ 0.085 µM) | > 16 | 0.06 (≈ 0.085 µM) | > 16 | 0.06 (≈ 0.085 µM) | > 16 | 0.06 (≈ 0.085 µM) | > 16 | 0.06 (≈ 0.085 µM) | > 16 | 0.12 (≈ 0.17 µM) | 16 (≈ 22.7 µM) | MIC50 ([3]; Lodderomyces parapsilosis): 0.06 µg/mL (≈ 0.085 µM); MIC90 ([3]; Lodderomyces parapsilosis): 0.25 µg/mL (≈ 0.354 µM); Activity [12]: 50%; Activity [13]: 72.7%; Activity [14]: 10%; Activity [15]: 63.6%; Activity [16]: 100%; Activity [17]: 48.1%; Activity [18]: 4.6%; Activity [19]: 0%; Activity [20]: 0%; Activity [21]: 0%

Source: ChEMBL document CHEMBL1255262, “Antimicrobial activity of omiganan pentahydrochloride against contemporary fungal pathogens responsible for catheter-associated infections” (2008)
